# Data taken from US12202844B2, “MAP4K1 inhibitors” (Blueprint Medicines Corporation, priority 2021, dated 2025).
# Where two headings read alike, the source gives them in different places.
# Experiments:
# [1] = target: T1, MAP4K1 (HPK1) (Homo sapiens, UniProt Q92918); assay: Inhibition of MAP4K1 biochemical enzymatic activity (EZReader 2 electrophoretic mobility shift); settings: HPK1 (Invitrogen), S6K2tide 1.5 μM, 120 min; ATP 26 μM or 1000 μM (not given)
# T1 construct: purchased Invitrogen
# Description: MAP4K1 (HPK1) and relevant off-target enzymatic activity was monitored using the Perkin Elmer electrophoretic mobility shift technology platform—the EZReader 2. […] Within the linear, steady-state phase of the kinase enzymatic reaction, the mixed pool of phosphorylated (product) and non-phosphorylated (substrate) peptides was passed through the microfluidic system of the PerkinElmer EZ Reader 2, under an applied electric potential difference. The presence of the phosphate group on the product peptide provided a difference in mass and charge between that of the substrate peptide, resulting in a separation of the substrate and product pools in the sample (Perrin et al. 2010). As the product and substrate peptide mixture passes the lasers within the instrument, these pools are detected (λex=488 nm, λem=568 nm) and resolved as separate peaks. The ratio between these peaks reflects the activity of the compound at that concentration, in that well, under those conditions.
# Inhibitors were dissolved in 100% DMSO at a stock concentration of 10 mM. A 100×, 10-point, 4-fold serial dilution of each inhibitor was created in 100% DMSO either manually or on a Hamilton STAR liquid handler, starting at a relevant concentration, usually 1 mM. A volume of 0.130 μL of each concentration was transferred to the relevant wells of a 384-well plate (Greiner 781 201) in duplicate using a TTPLabtech Mosquito nano-litre dispenser. Using a Multidrop Combi, the remaining constituents of the kinase reaction were added to the 130 nL of dosed compound as follows (see table below for final reaction details):
# Enzyme activity assays at the ^APPKM for ATP or 1 mM ATP: In each well of a 384-well plate, 0.1-15 nM of untreated enzyme was incubated in a total of 13 μL of buffer (100 mM HEPES pH 7.5, 0.015% Brij 35, 10 mM MgCl2, 1 mM DTT) with 1.5 μM fluorescent peptid and 20-1000 μM ATP, at 25° C., for 60-180 minutes in the presence or absence of a dosed concentration series of compound (1% DMSO final concentration). The kinase reactions were stopped by the addition of 70 μl of Stop buffer (100 mM HEPES pH 7.5, 0.015% Brij 35, 35 mM EDTA and 0.2% of Coating Reagent 3 (Caliper Lifesciences)). The plates were read on a Caliper EZReader 2 as described above.
# [2] = tested on: Primary T Cell (expanded CD3+ T cells); assay: T cell enhancement of cytokines: IL2 measurement (HTRF) in stimulated expanded CD3+ T cells; format: cell-based, human; settings: plate-bound anti-CD3 and soluble anti-CD28, 24 h, IL2 by HTRF, read-out: IL-2 Primary T Cell EC50
# Procedure: T cells are isolated from whole blood of healthy donors by immunomagnetic negative selection following manufacture's protocol (StemCell Technologies, human T cell isolation kit). Purity of isolated cells is assessed by flow cytometry and yields 95-98% CD3^+ T cells. For expansion of T cells, 1×10^6 cells/well are plated in serum free cell expansion media (ThermoFisher) containing 30 U of recombinant human IL2 (R&D) and stimulated with 25 ul of CD3/CD28 beads (Invitrogen) in 24 well plates for 3-4 days. T cells are then expanded in 175 cm flasks and maintained at a cell density of 1 to 2.5×10^6 cells/ml days by addition of ⅔ of fresh media every 2-3 days. After 10-14 days, cells are frozen in BamBanker freezing media (Thermo) and stored in liquid nitrogen.
# For IL2 measurement, expanded CD3^+ T cells are dispensed at 100K cells/well (cultured in X-VIVO 10 Serum-free media) and are stimulated with plate-bound anti-CD3 and soluble anti-CD28 in the presence of vehicle or compound of the disclosure at various concentrations for 24 h. As outlined in the manufacturer's protocol (Cisbio), 16 μL of conditioned media is transferred to a white 384-well low volume plate. Following a 24 h incubation with the anti-IL2 antibodies, the homogenous time resolved fluorescence (HTRF) is measured.
# T1 sequence (Q92918 whole entry): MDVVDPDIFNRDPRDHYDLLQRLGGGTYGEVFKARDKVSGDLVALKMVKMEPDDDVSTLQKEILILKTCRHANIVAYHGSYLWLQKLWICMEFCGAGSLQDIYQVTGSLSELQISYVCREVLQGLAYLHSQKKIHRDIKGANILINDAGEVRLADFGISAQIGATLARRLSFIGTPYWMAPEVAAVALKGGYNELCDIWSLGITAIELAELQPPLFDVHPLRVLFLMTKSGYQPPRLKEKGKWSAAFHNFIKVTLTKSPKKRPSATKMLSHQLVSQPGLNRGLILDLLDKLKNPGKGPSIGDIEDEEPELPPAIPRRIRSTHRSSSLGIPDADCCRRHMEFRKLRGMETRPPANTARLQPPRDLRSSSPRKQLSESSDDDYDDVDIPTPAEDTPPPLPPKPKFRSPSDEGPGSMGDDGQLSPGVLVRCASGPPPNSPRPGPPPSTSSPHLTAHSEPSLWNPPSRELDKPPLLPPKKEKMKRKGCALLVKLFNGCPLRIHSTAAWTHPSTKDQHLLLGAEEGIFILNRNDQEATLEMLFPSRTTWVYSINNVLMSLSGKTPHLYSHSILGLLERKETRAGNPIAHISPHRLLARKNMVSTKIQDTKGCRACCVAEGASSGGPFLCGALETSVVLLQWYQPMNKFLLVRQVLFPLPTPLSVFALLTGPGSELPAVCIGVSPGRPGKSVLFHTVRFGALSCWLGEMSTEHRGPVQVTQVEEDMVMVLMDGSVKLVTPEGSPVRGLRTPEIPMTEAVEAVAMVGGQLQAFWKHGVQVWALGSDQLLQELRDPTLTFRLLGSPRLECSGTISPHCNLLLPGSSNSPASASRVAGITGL
IC50 [1] [nM],"EC50 ([2]; Homo sapiens, T-cell, 24 h) [nM]",EC50 [2] [nM],SMILES
0.14,15,,"CC[C@@](C)(N)c1cnc(O[C@H](C)CCS(=O)(=O)CC)c2cnc(Nc3ccc4c(n3)[C@@H](C)[C@H](C)OC4=O)cc12 (single isomer, unassigned) [Compound 92]"
0.2,26,,"CCC[C@@](C)(N)c1cnc(O[C@H](C)CCS(C)(=O)=O)c2cnc(Nc3ccc4c(n3)[C@@H](C)[C@H](C)OC4=O)cc12 (single isomer, unassigned) [Compound 86]"
0.29,24,,"C[C@H](CCS(C)(=O)=O)Oc1ncc(C(C)(C)N)c2cc(Nc3ccc4c(n3)C3(CC3)[C@@H](C)OC4=O)ncc12 (single isomer, unassigned) [Compound 29]"
0.21,23,,CC[C@@](C)(N)c1cnc(O[C@H](C)C[C@@H](C)S(C)(=O)=O)c2cnc(Nc3ccc4c(n3)C(C)(C)COC4=O)cc12 [Compound 88]
0.16,,21,"CC[C@@](C)(N)c1cnc(O[C@H](C)C[C@@H](C)[S@@](C)(=N)=O)c2cnc(Nc3ccc4c(n3)C(C)(C)[C@@H](C)OC4=O)cc12 (single isomer, unassigned) [Compound 182]"
0.24,21,,"CC[C@@](C)(N)c1cnc(O[C@H](C)CCS(C)(=O)=O)c2cnc(Nc3ccc4c(n3)C3(CC3)[C@@H](C)OC4=O)cc12 (single isomer, unassigned) [Compound 66]"
0.16,7,,CC[C@@](C)(N)c1cnc(O[C@H](C)C[C@@H](C)S(C)(=O)=O)c2cnc(Nc3ccc4c(n3)[C@@H](C)C(C)(C)OC4=O)cc12 [Compound 129]
0.36,34,,"C[C@H](CCS(C)(=O)=O)Oc1ncc(C(C)(C)N)c2cc(Nc3ccc4c(n3)[C@@H](C)C(C)(C)OC4=O)ncc12 (single isomer, unassigned) [Compound 55]"
0.56,,,CC[C@@](C)(N)c1cnc(O[C@H](C)CCS(C)(=O)=O)c2cnc(Nc3ccc4c(n3)C(C)(C)COC4=O)cc12 [Compound 50]
2.2,,,"CC[C@@](C)(N)c1cnc(O[C@H](C)CC(C)(C)[S@@](C)(=N)=O)c2cnc(Nc3ccc4c(n3)C(C)(C)[C@@H](C)OC4=O)cc12 (single isomer, unassigned) [Compound 187]"
1.48,,,COC[C@@](C)(N)c1cnc(O[C@H](C)C[C@@H](C)S(C)(=O)=O)c2cnc(Nc3ccc4c(n3)C3(CC3)C(C)(C)OC4=O)cc12 [Compound 164]
0.21,,,"CC[C@@](C)(N)c1cnc(OCCCS(C)(=O)=O)c2cnc(Nc3ccc4c(n3)C(C)(C)[C@H](C)OC4=O)cc12 (single isomer, unassigned) [Compound 56]"
0.46,,,"CC[C@@](C)(N)c1cnc(O[C@@H](C)CCS(C)(=O)=O)c2cnc(Nc3ccc4c(n3)C3(CC3)[C@@H](C)OC4=O)cc12 (single isomer, unassigned) [Compound 147]"
0.22,,,"CC[C@@](C)(N)c1cnc(O[C@@H](C)CCS(=O)(=O)C2CC2)c2cnc(Nc3ccc4c(n3)[C@@H](C)[C@H](C)OC4=O)cc12 (single isomer, unassigned) [Compound 106]"
3.67,,,"CC[C@@](C)(N)c1cnc(O[C@@H](C)CC(C)(C)S(C)(=O)=O)c2cnc(Nc3ccc4c(n3)C(C)(C)[C@H](C)OC4=O)cc12 (single isomer, unassigned) [Compound 191]"
0.94,,,"CC[C@@](C)(N)c1cnc(O[C@@H](C)CC(C)(C)S(C)(=O)=O)c2cnc(Nc3ccc4c(n3)C(C)(C)[C@H](C)OC4=O)cc12 (single isomer, unassigned) [Compound 192]"

# Second part, the compound before the results:
SMILES,IC50 [1] [nM],"EC50 ([2]; Homo sapiens, T-cell, 24 h) [nM]",EC50 [2] [nM]
CC[C@@](C)(N)c1cnc(O[C@H]2C[C@@H](S(C)(=O)=O)C2)c2cnc(Nc3ccc4c(n3)[C@@H](C)C(C)(C)OC4=O)cc12 [Compound 78],0.14,7,
CC[C@@](C)(N)c1cnc(O[C@H]2C[C@@H](S(=O)(=O)CC)C2)c2cnc(Nc3ccc4c(n3)[C@@H](C)[C@H](C)OC4=O)cc12 [Compound 77],0.06,3,
"CC[C@@](C)(N)c1cnc(O[C@@H]2C[C@H](S(C)(=O)=O)[C@H]2C)c2cnc(Nc3ccc4c(n3)[C@@H](C)[C@H](C)OC4=O)cc12 (single isomer, unassigned) [Compound 151]",0.16,,9
"C[C@@H]1COC(=O)c2ccc(Nc3cc4c(C(C)(C)N)cnc(O[C@H]5C[C@@H](S(C)(=O)=O)C5)c4cn3)nc21 (single isomer, unassigned) [Compound 6]",0.18,7,
CC[C@@](C)(N)c1cnc(O[C@H]2C[C@@H](S(=O)(=O)CC)C2)c2cnc(Nc3ccc4c(n3)[C@@H](C)C(C)(C)OC4=O)cc12 [Compound 117],0.05,6,
"CCS(=O)(=O)C[C@H]1C[C@@H](Oc2ncc(C(C)(C)N)c3cc(Nc4ccc5c(n4)[C@@H](C)C(C)(C)OC5=O)ncc23)C1 (single isomer, unassigned) [Compound 112]",0.13,25,
C[C@@H]1OC(=O)c2ccc(Nc3cc4c(C(C)(C)N)cnc(O[C@H]5C[C@@H](S(C)(=O)=O)C5)c4cn3)nc2[C@H]1C [Compound 13],0.12,15,
"C[C@@H]1c2nc(Nc3cc4c(C(C)(C)N)cnc(OCCC[S@@](C)(=N)=O)c4cn3)ccc2C(=O)OC1(C)C (single isomer, unassigned) [Compound 169]",0.6,,
C[C@@H]1OC(=O)c2ccc(Nc3cc4c(C(C)(C)N)cnc(O[C@H]5C[C@H](S(=O)(=O)N(C)C)C5)c4cn3)nc2[C@H]1C [Compound 82],0.35,,
"CC[C@@](C)(N)c1cnc(O[C@@H](C)CC(C)(C)S(C)(=O)=O)c2cnc(Nc3ccc4c(n3)[C@@H](C)[C@H](C)OC4=O)cc12 (single isomer, unassigned) [Compound 184]",0.83,,
C[C@@H]1OC(=O)c2ccc(Nc3cc4c(C(C)(C)N)cnc(O[C@H]5C[C@H](S(C)(=O)=O)C5)c4cn3)nc2[C@H]1C [Compound 14],0.28,,
"CC[C@@](C)(N)c1cnc(OCCCS(C)(=O)=O)c2cnc(Nc3ccc4c(n3)[C@H](C)[C@H](C)OC4=O)cc12 (single isomer, unassigned) [Compound 21]",0.18,,
"C[C@H](C[C@H]1CCCS1(=O)=O)Oc1ncc(C(C)(C)N)c2cc(Nc3ccc4c(n3)[C@@H](C)C(C)(C)OC4=O)ncc12 (single isomer, unassigned) [Compound 160]",1.61,,
COC[C@@](C)(N)c1cnc(O[C@H](C)C[C@@H](C)S(C)(=O)=O)c2cnc(Nc3ccc4c(n3)[C@@H](C)[C@H](C)OC4=O)cc12 [Compound 134],0.48,,
"C[C@H](CCS(C)(=O)=O)Oc1ccc(C(C)(C)N)c2cc(Nc3ccc4c(n3)[C@@H](C)C(C)(C)OC4=O)ncc12 (single isomer, unassigned) [Compound 46]",0.71,,
CC[C@@](C)(N)c1cnc(O[C@H]2C[C@H](CS(C)(=O)=O)C2)c2cnc(Nc3ccc4c(n3)[C@@H](C)[C@H](C)OC4=O)cc12 [Compound 72],0.1,,
C[C@H](C[C@@H](C)S(C)(=O)=O)Oc1ncc(C(C)(C)N)c2cc(Nc3ccc4c(n3)C3(CC3)C(C)(C)OC4=O)ncc12 [Compound 103],0.55,,
"C[C@H](C[C@H]1CCCS1(=O)=O)Oc1ncc(C(C)(C)N)c2cc(Nc3ccc4c(n3)[C@@H](C)C(C)(C)OC4=O)ncc12 (single isomer, unassigned) [Compound 158]",0.86,,
